PMC4710522, “A Novel Triazolopyridine-Based Spleen Tyrosine Kinase Inhibitor That Arrests Joint Inflammation” (PLoS ONE, 2016)
Where “and” joins values, the source holds several entries; their conditions need not be identical. Equal entries are not always repeated.

How the values were obtained:
Assay in all cases: SelectScreen kinase assay
Type in all cases: biochemical
MYLK2_h = biological target: T1, MYLK2_h (Homo sapiens, UniProt Q9H1R3); settings: KM ATP, read-out: % control
T1 construct: purchased Life Technologies (Invitrogen) SelectScreen, Z'-LYTE / Adapta
In short: (§1)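 ATP level varied by condition (KM for the specific enzyme, 10 µM or 100 µM), while compound stayed at 3 µM; % control calculated against uninhibited DMSO wells.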

MARK2_h = biological target: T2, MARK2_h (Homo sapiens, UniProt Q7KZI7); settings: KM ATP, read-out: % control
T2 construct: purchased Life Technologies (Invitrogen) SelectScreen, Z'-LYTE / Adapta
In short: as §1

mTOR_h = biological target: T3, mTOR_h (Homo sapiens, UniProt P42345); settings: KM ATP, read-out: % control
T3 construct: purchased Life Technologies (Invitrogen) SelectScreen, Z'-LYTE / Adapta
In short: as §1

GRK7_h = biological target: T4, GRK7_h (Homo sapiens, UniProt Q8WTQ7); settings: KM ATP, read-out: % control
T4 construct: purchased Life Technologies (Invitrogen) SelectScreen, Z'-LYTE / Adapta
In short: as §1

cKit_T670I_h = biological target: T5, cKit_T670I_h (Homo sapiens, UniProt P10721, T670I); settings: KM ATP, read-out: % control
T5 construct: purchased Life Technologies (Invitrogen) SelectScreen, Z'-LYTE / Adapta
T5 sequence (P10721 26-976 T670I): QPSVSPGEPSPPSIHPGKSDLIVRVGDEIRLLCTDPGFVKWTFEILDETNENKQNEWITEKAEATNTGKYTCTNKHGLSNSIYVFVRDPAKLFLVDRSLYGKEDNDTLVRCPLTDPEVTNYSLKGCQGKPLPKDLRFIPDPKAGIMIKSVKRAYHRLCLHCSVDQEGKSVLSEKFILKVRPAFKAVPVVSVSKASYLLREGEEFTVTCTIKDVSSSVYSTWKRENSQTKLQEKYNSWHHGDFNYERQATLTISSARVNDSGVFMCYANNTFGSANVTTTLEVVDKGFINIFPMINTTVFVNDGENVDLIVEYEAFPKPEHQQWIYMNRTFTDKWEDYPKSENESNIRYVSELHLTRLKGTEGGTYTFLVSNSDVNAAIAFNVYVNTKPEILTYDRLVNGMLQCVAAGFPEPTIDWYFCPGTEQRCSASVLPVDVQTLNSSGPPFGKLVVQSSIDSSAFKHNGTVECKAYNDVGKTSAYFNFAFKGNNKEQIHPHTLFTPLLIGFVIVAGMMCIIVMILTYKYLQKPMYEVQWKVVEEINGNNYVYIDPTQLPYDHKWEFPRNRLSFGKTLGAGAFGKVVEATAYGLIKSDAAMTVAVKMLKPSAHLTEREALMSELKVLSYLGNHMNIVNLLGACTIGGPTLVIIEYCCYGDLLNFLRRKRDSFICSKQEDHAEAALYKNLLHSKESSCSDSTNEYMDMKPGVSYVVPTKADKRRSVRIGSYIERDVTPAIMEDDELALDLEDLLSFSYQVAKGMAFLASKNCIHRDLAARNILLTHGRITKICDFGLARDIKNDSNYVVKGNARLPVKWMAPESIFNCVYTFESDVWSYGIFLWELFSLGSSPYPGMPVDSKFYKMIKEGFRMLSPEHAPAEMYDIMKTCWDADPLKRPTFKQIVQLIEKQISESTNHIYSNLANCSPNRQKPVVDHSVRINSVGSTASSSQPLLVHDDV
In short: as §1

Flt3_h = Flt3_h (Homo sapiens, UniProt P36888)
Flt3_h, sequence (P36888 27-993): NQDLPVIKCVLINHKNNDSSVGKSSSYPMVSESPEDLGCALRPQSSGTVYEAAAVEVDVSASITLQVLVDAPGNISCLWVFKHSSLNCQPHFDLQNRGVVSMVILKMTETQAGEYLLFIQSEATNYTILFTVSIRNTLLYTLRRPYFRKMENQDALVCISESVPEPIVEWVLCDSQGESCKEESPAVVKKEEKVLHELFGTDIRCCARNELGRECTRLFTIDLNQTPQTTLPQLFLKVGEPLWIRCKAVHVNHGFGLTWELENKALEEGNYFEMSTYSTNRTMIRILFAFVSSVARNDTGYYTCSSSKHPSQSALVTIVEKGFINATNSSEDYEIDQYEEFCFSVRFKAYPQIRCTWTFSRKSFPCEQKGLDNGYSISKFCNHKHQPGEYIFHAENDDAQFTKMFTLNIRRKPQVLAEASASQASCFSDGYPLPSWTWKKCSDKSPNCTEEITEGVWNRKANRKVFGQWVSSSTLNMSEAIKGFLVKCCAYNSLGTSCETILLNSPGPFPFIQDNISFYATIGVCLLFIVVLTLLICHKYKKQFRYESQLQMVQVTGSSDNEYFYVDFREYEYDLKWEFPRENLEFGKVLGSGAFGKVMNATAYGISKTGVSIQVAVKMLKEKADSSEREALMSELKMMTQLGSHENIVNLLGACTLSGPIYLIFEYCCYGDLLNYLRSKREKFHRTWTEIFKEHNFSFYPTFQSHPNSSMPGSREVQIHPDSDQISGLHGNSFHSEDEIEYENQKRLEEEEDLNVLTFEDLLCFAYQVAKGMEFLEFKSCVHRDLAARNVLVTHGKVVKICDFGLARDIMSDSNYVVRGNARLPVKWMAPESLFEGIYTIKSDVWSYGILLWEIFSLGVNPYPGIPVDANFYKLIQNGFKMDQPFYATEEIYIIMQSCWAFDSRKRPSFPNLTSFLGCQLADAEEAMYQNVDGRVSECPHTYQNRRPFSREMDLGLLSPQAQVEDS

Flt1_h = biological target: T6, Flt1_h (Homo sapiens, UniProt P17948); settings: KM ATP, read-out: % control
T6 construct: purchased Life Technologies (Invitrogen) SelectScreen, Z'-LYTE / Adapta
In short: as §1

Lck_h = biological target: T7, Lck_h (Homo sapiens, UniProt P06239); settings: KM ATP, read-out: % control
T7 construct: purchased Life Technologies (Invitrogen) SelectScreen, Z'-LYTE / Adapta
T7 sequence (P06239 whole entry): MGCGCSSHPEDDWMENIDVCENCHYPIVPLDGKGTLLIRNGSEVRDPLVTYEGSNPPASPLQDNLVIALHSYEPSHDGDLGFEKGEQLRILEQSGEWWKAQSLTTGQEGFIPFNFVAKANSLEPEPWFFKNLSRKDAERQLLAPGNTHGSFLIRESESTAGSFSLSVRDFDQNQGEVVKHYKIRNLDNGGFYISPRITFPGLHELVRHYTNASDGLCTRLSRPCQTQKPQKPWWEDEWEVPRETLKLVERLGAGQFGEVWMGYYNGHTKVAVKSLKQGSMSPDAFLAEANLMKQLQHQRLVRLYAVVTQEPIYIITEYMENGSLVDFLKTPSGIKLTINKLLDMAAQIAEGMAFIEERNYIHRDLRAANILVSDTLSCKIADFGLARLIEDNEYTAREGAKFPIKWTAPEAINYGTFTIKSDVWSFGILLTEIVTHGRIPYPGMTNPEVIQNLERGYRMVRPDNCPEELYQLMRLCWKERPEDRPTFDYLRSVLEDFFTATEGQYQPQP
In short: as §1

PKB-alpha_h = biological target: T8, PKB-alpha_h (Homo sapiens, UniProt P31749); settings: KM ATP, read-out: % control
T8 construct: purchased Life Technologies (Invitrogen) SelectScreen, Z'-LYTE / Adapta
In short: as §1

Fyn_h = biological target: T9, Fyn_h (Homo sapiens, UniProt P06241); settings: KM ATP, read-out: % control
T9 construct: purchased Life Technologies (Invitrogen) SelectScreen, Z'-LYTE / Adapta
In short: as §1

EphA8_h = biological target: T10, EphA8_h (Homo sapiens, UniProt P29322); settings: KM ATP, read-out: % control
T10 construct: purchased Life Technologies (Invitrogen) SelectScreen, Z'-LYTE / Adapta
In short: as §1

Abl_G250E_h = biological target: T11, Abl_G250E_h (Homo sapiens, UniProt P00519, G250E); settings: KM ATP, read-out: % control
T11 construct: purchased Life Technologies (Invitrogen) SelectScreen, Z'-LYTE / Adapta
In short: as §1

ARK5_h = biological target: T12, ARK5_h (Homo sapiens, UniProt O60285); settings: KM ATP, read-out: % control
T12 construct: purchased Life Technologies (Invitrogen) SelectScreen, Z'-LYTE / Adapta
In short: as §1

EGFR_L861Q_h = biological target: T13, EGFR_L861Q_h (Homo sapiens, UniProt P00533, L861Q); settings: KM ATP, read-out: % control
T13 construct: purchased Life Technologies (Invitrogen) SelectScreen, Z'-LYTE / Adapta
In short: as §1

PKB-gamma_h = biological target: T14, PKB-gamma_h (Homo sapiens, UniProt Q9Y243); settings: KM ATP, read-out: % control
T14 construct: purchased Life Technologies (Invitrogen) SelectScreen, Z'-LYTE / Adapta
In short: as §1

MST4_h = biological target: T15, MST4_h (Homo sapiens, UniProt Q9P289); settings: KM ATP, read-out: % control
T15 construct: purchased Life Technologies (Invitrogen) SelectScreen, Z'-LYTE / Adapta
T15 sequence (Q9P289 whole entry): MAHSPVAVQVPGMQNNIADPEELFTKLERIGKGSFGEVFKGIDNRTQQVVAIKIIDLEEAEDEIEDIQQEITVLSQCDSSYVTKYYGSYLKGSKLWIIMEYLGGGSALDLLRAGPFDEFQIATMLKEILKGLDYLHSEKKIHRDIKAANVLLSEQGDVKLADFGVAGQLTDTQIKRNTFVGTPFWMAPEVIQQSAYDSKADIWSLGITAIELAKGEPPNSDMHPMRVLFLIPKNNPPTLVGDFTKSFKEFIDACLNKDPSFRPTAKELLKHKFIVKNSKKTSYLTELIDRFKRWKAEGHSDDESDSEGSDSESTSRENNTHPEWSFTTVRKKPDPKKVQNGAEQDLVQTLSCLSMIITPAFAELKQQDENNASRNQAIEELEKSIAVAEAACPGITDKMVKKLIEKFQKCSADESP
In short: as §1

PRKG2_h = biological target: T16, PRKG2_h (Homo sapiens, UniProt Q13237); settings: KM ATP, read-out: % control
T16 construct: purchased Life Technologies (Invitrogen) SelectScreen, Z'-LYTE / Adapta
In short: as §1

cSRC-N1_h = biological target: T17, cSRC-N1_h (Homo sapiens, UniProt P12931); settings: KM ATP, read-out: % control
T17 construct: purchased Life Technologies (Invitrogen) SelectScreen, Z'-LYTE / Adapta
In short: as §1

Rsk2_h = biological target: T18, Rsk2_h (Homo sapiens, UniProt P51812); settings: KM ATP, read-out: % control
T18 construct: purchased Life Technologies (Invitrogen) SelectScreen, Z'-LYTE / Adapta
In short: as §1

JAK2_h = JAK2_h (Homo sapiens, UniProt O60674)
JAK2_h, sequence (O60674 whole entry): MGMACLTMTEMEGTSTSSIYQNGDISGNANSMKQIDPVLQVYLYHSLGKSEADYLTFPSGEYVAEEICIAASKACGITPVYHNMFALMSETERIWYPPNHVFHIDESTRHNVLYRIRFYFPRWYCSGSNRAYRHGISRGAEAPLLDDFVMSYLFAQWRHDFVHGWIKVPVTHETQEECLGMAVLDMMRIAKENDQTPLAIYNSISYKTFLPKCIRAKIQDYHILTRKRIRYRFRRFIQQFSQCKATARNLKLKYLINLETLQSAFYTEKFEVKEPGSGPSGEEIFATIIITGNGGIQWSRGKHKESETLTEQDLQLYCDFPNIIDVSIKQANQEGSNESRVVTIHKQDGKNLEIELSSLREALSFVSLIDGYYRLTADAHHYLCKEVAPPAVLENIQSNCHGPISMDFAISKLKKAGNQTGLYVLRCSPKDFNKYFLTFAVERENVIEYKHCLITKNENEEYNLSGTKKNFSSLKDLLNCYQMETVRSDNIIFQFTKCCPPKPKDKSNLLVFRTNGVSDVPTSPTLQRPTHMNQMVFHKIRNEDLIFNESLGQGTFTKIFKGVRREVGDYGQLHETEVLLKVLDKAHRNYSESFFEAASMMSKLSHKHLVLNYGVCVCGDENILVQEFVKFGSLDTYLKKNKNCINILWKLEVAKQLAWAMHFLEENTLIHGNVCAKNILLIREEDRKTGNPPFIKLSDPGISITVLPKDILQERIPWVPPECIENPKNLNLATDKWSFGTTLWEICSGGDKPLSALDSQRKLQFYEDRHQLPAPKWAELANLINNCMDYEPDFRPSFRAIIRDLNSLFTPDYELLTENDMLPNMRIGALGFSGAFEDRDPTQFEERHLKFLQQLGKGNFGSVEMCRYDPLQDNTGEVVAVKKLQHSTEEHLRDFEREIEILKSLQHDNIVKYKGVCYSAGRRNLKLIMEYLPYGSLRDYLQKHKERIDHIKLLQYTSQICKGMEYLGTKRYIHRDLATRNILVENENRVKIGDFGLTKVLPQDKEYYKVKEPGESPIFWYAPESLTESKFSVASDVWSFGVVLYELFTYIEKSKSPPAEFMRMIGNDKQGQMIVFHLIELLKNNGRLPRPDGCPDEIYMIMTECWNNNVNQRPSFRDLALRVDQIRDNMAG
In short: as §1

CDK7_h = biological target: T19, CDK7_h (Homo sapiens, UniProt P50613); settings: KM ATP, read-out: % control
T19 construct: purchased Life Technologies (Invitrogen) SelectScreen, Z'-LYTE / Adapta
In short: as §1

PrKX_h = biological target: T20, PrKX_h (Homo sapiens, UniProt P51817); settings: KM ATP, read-out: % control
T20 construct: purchased Life Technologies (Invitrogen) SelectScreen, Z'-LYTE / Adapta
In short: as §1

PAK1_h = biological target: T21, PAK1_h (Homo sapiens, UniProt Q13153); settings: KM ATP, read-out: % control
T21 construct: purchased Life Technologies (Invitrogen) SelectScreen, Z'-LYTE / Adapta
In short: as §1

CK1-gamma1_h = biological target: T22, CK1-gamma1_h (Homo sapiens, UniProt Q9HCP0); settings: KM ATP, read-out: % control
T22 construct: purchased Life Technologies (Invitrogen) SelectScreen, Z'-LYTE / Adapta
In short: as §1

PDGFR-beta_h = biological target: T23, PDGFR-beta_h (Homo sapiens, UniProt P09619); settings: KM ATP, read-out: % control
T23 construct: purchased Life Technologies (Invitrogen) SelectScreen, Z'-LYTE / Adapta
In short: as §1

BTK_h = biological target: T24, BTK_h (Homo sapiens, UniProt Q06187); settings: KM ATP, read-out: % control
T24 construct: purchased Life Technologies (Invitrogen) SelectScreen, Z'-LYTE / Adapta
In short: as §1

MRCK-beta_h = biological target: T25, MRCK-beta_h (Homo sapiens, UniProt Q9Y5S2); settings: KM ATP, read-out: % control
T25 construct: purchased Life Technologies (Invitrogen) SelectScreen, Z'-LYTE / Adapta
In short: as §1

CLK2_h = biological target: T26, CLK2_h (Homo sapiens, UniProt P49760); settings: KM ATP, read-out: % control
T26 construct: purchased Life Technologies (Invitrogen) SelectScreen, Z'-LYTE / Adapta
In short: as §1

Rse_h = biological target: T27, Rse_h (Homo sapiens, UniProt Q06418); settings: KM ATP, read-out: % control
T27 construct: purchased Life Technologies (Invitrogen) SelectScreen, Z'-LYTE / Adapta
In short: as §1

PDGFR-alpha_h = PDGFR-alpha_h (Homo sapiens, UniProt P16234)
PDGFR-alpha_h, sequence (P16234 24-1089): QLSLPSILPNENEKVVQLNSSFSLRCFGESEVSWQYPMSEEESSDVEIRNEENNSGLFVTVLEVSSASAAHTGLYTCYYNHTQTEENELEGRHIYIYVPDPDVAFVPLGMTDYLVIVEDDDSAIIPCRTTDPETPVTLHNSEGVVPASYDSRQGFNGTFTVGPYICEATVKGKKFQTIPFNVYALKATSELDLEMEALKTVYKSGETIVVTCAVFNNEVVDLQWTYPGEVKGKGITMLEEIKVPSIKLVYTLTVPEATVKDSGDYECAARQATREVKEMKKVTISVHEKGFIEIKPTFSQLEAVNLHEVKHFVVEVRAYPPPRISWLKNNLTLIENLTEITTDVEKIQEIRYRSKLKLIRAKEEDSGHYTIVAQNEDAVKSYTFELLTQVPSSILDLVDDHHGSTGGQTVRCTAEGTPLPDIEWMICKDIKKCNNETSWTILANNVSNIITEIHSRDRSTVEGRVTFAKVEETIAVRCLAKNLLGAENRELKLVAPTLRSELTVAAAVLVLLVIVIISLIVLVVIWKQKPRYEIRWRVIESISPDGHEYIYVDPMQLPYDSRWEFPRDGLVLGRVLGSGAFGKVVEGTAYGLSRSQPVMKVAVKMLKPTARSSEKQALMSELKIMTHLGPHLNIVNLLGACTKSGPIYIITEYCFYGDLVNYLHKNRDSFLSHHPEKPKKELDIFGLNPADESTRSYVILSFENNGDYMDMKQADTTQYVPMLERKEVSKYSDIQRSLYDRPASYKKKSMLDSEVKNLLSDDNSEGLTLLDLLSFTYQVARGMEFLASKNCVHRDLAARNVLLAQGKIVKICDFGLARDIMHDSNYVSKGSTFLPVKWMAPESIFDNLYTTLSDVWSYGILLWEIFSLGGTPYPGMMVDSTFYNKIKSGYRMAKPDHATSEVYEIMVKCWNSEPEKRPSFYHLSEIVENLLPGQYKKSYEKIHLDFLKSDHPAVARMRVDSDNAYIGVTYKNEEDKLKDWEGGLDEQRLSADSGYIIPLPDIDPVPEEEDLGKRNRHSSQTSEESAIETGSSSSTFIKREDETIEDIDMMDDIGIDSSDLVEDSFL
In short: as §1

cKit_h = cKit_h (Homo sapiens, UniProt P10721)
cKit_h, sequence (P10721 26-976): as the sequence (P10721 26-976 T670I) above, with I645T counted along it
In short: as §1

EGFR_h = biological target: T28, EGFR_h (Homo sapiens, UniProt P00533); settings: KM ATP, read-out: % control
T28 construct: purchased Life Technologies (Invitrogen) SelectScreen, Z'-LYTE / Adapta
In short: as §1

MST3_h = biological target: T29, MST3_h (Homo sapiens, UniProt Q9Y6E0); settings: KM ATP, read-out: % control
T29 construct: purchased Life Technologies (Invitrogen) SelectScreen, Z'-LYTE / Adapta
In short: as §1

[1] = 3 µM, KM ATP, read-out: % control
[2] = 10-point dose-response, commercial vendor

c1cc(CC2CCOCC2)n2nc(Nc3ccc4c(NC5CCOCC5)n[nH]c4c3)nc2c1 [CC-509, [3-(2H-3,4,5,6-tetrahydropyran-4-ylamino)(1H-indazol-6-yl)][5-(2H-3,4,5,6-tetrahydropyran-4-ylmethyl)(2H-1,2,4-triazolo[1,5-a]pyridin-2-yl)]amine]
remaining activity at 3 µM (MYLK2_h): 80% | remaining activity at 3 µM (MARK2_h): 55% | remaining activity at 3 µM (mTOR_h): 92% | remaining activity at 3 µM (GRK7_h): 94% | remaining activity at 3 µM (cKit_T670I_h): 83% | remaining activity at 3 µM (Flt3_h; [1]): 6% | IC50 (Flt3_h; [2]): 140 nM and 143 nM | remaining activity at 3 µM (Flt1_h): 55% | remaining activity at 3 µM (Lck_h): 39% | remaining activity at 3 µM (PKB-alpha_h): 100% | remaining activity at 3 µM (Fyn_h): 74% | remaining activity at 3 µM (EphA8_h): 91% | remaining activity at 3 µM (Abl_G250E_h): 29% | remaining activity at 3 µM (ARK5_h): 7% | remaining activity at 3 µM (EGFR_L861Q_h): 97% | remaining activity at 3 µM (PKB-gamma_h): 99% | remaining activity at 3 µM (MST4_h): 99% | remaining activity at 3 µM (PRKG2_h): 93% | remaining activity at 3 µM (cSRC-N1_h): 58% | remaining activity at 3 µM (Rsk2_h): 49% | remaining activity at 3 µM (JAK2_h; [1]): 4% | IC50 (JAK2_h; [2]): 18.9 nM | remaining activity at 3 µM (CDK7_h): 94% | remaining activity at 3 µM (PrKX_h): 95% | remaining activity at 3 µM (PAK1_h): 94% | remaining activity at 3 µM (CK1-gamma1_h): 54% | remaining activity at 3 µM (PDGFR-beta_h): 43% | remaining activity at 3 µM (BTK_h): 72% | remaining activity at 3 µM (MRCK-beta_h): 94% | remaining activity at 3 µM (CLK2_h): 50% | remaining activity at 3 µM (Rse_h): 53% | remaining activity at 3 µM (PDGFR-alpha_h; [1]): 4% | IC50 (PDGFR-alpha_h; [2]): 204 nM | remaining activity at 3 µM (cKit_h; [1]): 66% | IC50 (cKit_h; [2]): 11000 nM | remaining activity at 3 µM (EGFR_h): 97% | remaining activity at 3 µM (MST3_h): 107%
